Source: article PMC7026418, “The kinase polypharmacology landscape of clinical PARP inhibitors” (Scientific Reports, 2020)
Where two headings read alike, the source gives them in different places.

What was measured:
Assay in all cases: biochemical
Set-up in all cases: DiscoveRx KINOMEscan active site-directed competition binding; percent of control kinase bound to immobilised ligand
[1] = target: BRAF (Homo sapiens, UniProt P15056)
[2] = target: CDK5 (Homo sapiens, UniProt Q00535)
[3] = target: ERBB2 (Homo sapiens, UniProt P04626)
ERBB2, sequence (P04626 whole entry): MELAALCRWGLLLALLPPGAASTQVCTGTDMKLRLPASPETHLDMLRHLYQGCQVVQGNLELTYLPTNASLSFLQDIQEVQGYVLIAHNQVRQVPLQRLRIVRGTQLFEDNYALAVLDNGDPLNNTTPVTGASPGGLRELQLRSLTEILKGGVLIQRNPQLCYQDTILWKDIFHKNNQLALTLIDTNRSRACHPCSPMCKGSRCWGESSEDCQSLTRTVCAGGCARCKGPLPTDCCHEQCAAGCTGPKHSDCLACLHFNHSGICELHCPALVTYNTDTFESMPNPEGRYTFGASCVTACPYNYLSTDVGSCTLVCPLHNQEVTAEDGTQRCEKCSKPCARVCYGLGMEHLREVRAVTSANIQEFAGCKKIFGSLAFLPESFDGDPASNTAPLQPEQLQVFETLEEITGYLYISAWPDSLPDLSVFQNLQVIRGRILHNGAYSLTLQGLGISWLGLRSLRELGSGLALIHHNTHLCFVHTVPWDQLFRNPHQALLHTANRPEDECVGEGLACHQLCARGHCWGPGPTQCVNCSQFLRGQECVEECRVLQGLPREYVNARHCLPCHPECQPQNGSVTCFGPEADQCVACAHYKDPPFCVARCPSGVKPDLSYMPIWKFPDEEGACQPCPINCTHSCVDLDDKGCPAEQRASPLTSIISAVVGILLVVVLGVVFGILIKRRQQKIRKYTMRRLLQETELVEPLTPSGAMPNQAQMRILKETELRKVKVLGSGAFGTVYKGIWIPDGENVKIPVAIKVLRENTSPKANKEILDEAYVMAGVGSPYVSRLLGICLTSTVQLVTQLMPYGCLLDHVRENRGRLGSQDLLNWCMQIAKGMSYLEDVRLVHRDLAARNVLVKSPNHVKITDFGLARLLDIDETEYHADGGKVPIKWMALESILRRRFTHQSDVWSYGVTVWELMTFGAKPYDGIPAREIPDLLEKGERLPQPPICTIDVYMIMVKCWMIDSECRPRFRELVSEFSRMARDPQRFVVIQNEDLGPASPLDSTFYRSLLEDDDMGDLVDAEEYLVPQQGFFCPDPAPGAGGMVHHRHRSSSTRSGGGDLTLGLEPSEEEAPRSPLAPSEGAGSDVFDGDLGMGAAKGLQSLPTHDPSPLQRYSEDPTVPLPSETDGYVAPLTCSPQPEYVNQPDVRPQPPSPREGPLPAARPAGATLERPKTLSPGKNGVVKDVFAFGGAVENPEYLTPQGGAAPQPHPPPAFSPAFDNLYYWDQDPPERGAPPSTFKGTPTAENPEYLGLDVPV

[4] = target: FLT1 (Homo sapiens, UniProt P17948)
[5] = target: INSR (Homo sapiens, UniProt P06213)
[6] = target: T1, JAK1(JH1domain-catalytic) (Homo sapiens, UniProt P23458)
T1 construct: JH1domain-catalytic

[7] = target: T2, MAK (Homo sapiens, UniProt P20794)
T2 sequence (P20794 1-623): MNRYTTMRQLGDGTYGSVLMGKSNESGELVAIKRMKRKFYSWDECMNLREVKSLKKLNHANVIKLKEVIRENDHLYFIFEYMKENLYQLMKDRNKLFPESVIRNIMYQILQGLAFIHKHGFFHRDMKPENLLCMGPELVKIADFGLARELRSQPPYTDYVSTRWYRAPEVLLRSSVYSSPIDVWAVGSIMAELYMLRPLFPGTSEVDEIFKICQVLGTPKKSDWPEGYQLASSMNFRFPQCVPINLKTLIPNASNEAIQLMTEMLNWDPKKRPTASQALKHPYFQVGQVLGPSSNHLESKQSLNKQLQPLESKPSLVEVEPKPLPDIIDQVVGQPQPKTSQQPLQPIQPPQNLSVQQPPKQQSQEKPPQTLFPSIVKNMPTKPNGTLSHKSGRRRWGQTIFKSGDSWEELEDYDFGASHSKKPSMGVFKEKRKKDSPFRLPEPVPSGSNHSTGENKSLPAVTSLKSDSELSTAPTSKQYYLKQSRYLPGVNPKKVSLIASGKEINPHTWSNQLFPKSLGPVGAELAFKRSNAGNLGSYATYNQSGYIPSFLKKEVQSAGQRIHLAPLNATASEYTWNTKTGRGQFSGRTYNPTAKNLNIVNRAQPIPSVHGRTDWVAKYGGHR

[8] = target: T3, MEK5 (Homo sapiens, UniProt Q13163)
T3 construct: gene MAP2K5
T3 sequence (Q13163 1-448): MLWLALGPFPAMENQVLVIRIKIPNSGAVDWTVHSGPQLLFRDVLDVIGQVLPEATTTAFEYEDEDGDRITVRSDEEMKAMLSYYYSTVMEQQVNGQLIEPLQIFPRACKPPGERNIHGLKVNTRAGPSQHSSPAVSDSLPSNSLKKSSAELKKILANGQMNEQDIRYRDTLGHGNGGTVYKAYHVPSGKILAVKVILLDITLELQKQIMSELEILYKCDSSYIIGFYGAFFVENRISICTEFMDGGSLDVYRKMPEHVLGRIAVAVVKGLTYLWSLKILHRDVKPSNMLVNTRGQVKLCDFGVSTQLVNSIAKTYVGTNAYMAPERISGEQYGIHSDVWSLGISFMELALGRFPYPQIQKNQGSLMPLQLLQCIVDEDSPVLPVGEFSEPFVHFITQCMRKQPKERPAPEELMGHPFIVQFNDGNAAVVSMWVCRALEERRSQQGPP

[9] = target: PDGFRB (Homo sapiens, UniProt P09619)
[10] = target: PIK3CA(Q546K) (Homo sapiens, UniProt P42336, Q546K)
PIK3CA(Q546K), sequence (P42336 whole entry Q546K): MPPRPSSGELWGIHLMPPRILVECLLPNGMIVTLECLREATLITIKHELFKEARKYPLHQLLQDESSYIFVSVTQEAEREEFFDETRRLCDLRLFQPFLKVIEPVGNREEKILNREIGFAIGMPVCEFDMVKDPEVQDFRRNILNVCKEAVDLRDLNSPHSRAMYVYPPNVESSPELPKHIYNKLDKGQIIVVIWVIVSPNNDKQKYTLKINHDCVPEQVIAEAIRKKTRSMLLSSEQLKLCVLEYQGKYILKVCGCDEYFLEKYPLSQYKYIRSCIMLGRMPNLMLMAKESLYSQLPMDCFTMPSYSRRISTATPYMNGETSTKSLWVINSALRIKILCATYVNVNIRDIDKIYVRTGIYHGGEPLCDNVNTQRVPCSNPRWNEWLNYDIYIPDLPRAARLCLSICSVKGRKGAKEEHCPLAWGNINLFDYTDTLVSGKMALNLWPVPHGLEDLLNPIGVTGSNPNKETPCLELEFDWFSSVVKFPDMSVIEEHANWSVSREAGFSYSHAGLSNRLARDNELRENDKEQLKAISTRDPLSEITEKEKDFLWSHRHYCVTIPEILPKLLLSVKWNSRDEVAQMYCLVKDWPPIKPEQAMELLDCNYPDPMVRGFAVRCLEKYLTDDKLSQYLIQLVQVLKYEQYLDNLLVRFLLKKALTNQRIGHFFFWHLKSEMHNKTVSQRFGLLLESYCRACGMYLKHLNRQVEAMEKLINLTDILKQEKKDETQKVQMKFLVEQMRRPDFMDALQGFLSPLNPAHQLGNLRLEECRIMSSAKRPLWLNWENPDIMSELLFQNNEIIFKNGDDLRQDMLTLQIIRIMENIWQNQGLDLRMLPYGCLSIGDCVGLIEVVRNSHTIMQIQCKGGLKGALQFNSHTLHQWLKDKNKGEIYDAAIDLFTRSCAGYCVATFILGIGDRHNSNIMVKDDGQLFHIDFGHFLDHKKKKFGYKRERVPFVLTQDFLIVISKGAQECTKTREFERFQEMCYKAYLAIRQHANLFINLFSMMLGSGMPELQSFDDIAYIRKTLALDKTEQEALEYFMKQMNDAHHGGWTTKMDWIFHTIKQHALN

[11] = target: PIK3CB (Homo sapiens, UniProt P42338)
[12] = target: T4, QSK (Homo sapiens, UniProt Q9Y2K2)
T4 construct: gene SIK3

[13] = target: ROCK2 (Homo sapiens, UniProt O75116)
ROCK2, sequence (O75116 whole entry): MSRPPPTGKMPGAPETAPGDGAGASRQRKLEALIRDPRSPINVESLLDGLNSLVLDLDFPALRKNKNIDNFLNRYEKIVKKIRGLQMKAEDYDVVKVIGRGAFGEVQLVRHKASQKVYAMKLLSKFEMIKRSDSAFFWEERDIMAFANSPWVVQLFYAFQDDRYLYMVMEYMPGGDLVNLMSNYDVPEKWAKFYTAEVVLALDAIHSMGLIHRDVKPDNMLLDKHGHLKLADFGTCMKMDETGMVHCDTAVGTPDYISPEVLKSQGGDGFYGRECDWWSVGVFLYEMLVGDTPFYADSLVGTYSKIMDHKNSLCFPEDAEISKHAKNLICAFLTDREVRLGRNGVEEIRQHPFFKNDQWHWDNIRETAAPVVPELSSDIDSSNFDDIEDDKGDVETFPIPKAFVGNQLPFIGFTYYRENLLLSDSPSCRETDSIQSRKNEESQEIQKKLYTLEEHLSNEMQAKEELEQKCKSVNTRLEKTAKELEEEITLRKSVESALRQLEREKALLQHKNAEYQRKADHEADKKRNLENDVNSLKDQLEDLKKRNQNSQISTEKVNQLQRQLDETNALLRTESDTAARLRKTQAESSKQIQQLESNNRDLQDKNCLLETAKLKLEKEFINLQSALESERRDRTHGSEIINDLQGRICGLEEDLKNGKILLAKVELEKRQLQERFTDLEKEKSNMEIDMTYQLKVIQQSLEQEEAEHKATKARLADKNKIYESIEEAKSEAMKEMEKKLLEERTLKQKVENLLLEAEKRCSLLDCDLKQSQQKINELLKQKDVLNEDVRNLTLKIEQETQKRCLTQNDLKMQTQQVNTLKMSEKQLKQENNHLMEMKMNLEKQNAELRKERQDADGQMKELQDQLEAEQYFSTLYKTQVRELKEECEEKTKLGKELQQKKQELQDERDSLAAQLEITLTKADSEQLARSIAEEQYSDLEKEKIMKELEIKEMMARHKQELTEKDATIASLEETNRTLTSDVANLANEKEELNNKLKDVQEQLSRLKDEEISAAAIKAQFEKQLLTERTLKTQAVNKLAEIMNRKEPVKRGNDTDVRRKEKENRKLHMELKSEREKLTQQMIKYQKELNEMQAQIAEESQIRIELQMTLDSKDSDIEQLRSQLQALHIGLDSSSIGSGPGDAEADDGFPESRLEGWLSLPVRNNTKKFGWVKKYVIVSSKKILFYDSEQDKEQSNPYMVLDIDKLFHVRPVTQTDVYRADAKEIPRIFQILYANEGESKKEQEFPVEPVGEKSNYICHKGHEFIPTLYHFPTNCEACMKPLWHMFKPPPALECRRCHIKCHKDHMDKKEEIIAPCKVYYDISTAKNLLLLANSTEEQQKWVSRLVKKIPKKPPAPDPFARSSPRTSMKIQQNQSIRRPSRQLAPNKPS

[14] = target: T5, RPS6KA5(Kin.Dom.1-N-terminal) (Homo sapiens, UniProt O75582)
T5 construct: Kin.Dom.1-N-terminal

[15] = target: T6, RSK2(Kin.Dom.1-N-terminal) (Homo sapiens, UniProt P51812)
T6 construct: gene RPS6KA3; Kin.Dom.1-N-terminal

[16] = target: WNK1 (Homo sapiens, UniProt Q9H4A3)
[17] = read-out: Talazoparib (BMN 673) / %Ctrl @ 10000nM
[18] = read-out: Olaparib / %Ctrl @ 10000nM
[19] = read-out: Niraparib (MK-4827) / %Ctrl @ 10000nM
[20] = read-out: Rucaparib / %Ctrl @ 10000nM, binding competition, % of control

CDK5, sequence (Q00535 whole entry): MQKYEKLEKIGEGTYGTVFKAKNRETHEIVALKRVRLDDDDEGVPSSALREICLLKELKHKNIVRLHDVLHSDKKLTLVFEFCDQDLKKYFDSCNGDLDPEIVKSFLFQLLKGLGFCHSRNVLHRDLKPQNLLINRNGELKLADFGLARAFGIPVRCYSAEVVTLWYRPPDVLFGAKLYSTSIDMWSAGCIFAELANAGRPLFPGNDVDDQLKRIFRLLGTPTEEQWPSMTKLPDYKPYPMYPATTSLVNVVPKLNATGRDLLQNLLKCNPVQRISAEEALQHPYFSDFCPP
BRAF, sequence (P15056 whole entry): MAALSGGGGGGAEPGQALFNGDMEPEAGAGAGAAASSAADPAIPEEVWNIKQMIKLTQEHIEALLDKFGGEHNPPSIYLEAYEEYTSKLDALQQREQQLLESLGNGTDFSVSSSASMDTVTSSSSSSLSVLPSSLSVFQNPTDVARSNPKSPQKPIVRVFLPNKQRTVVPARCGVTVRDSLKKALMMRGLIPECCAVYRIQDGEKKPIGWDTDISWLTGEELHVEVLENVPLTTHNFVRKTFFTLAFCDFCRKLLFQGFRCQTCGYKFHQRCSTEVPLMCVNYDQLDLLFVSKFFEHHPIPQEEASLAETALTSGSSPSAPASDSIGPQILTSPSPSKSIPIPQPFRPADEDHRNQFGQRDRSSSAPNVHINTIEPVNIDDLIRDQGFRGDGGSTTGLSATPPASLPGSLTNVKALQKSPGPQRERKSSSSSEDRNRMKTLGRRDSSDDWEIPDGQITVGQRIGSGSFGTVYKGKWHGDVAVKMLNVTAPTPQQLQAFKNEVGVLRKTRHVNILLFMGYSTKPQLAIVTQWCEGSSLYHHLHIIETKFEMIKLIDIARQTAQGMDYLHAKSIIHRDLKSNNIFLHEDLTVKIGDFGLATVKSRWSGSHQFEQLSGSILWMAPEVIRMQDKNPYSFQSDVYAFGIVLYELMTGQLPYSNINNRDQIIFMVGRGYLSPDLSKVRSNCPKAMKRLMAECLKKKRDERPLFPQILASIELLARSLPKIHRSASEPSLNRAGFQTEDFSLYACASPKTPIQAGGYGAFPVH

## Cn1ncnc1[C@H]1c2n[nH]c(=O)c3cc(F)cc(c23)N[C@@H]1c1ccc(F)cc1 [Talazoparib]
[1]; [17]
  percent of control binding at 10 µM: 67%
[2]; [17]
  percent of control binding at 10 µM: 98%
[3]; [17]
  percent of control binding at 10 µM: 98%
[4]; [17]
  percent of control binding at 10 µM: 100%
[5]; [17]
  percent of control binding at 10 µM: 62%
[6]; [17]
  percent of control binding at 10 µM: 100%
[7]; [17]
  percent of control binding at 10 µM: 93%
[8]; [17]
  percent of control binding at 10 µM: 51%
[9]; [17]
  percent of control binding at 10 µM: 99%
[10]; [17]
  percent of control binding at 10 µM: 100%
[11]; [17]
  percent of control binding at 10 µM: 100%
[12]; [17]
  percent of control binding at 10 µM: 75%
[13]; [17]
  percent of control binding at 10 µM: 100%
[14]; [17]
  percent of control binding at 10 µM: 98%
[15]; [17]
  percent of control binding at 10 µM: 88%
[16]; [17]
  percent of control binding at 10 µM: 100%

## O=C(c1cc(Cc2n[nH]c(=O)c3ccccc23)ccc1F)N1CCN(C(=O)C2CC2)CC1 [Olaparib]
[1]; [18]
  percent of control binding at 10 µM: 76%
[2]; [18]
  percent of control binding at 10 µM: 95%
[3]; [18]
  percent of control binding at 10 µM: 100%
[4]; [18]
  percent of control binding at 10 µM: 99%
[5]; [18]
  percent of control binding at 10 µM: 85%
[6]; [18]
  percent of control binding at 10 µM: 81%
[7]; [18]
  percent of control binding at 10 µM: 77%
[8]; [18]
  percent of control binding at 10 µM: 77%
[9]; [18]
  percent of control binding at 10 µM: 96%
[10]; [18]
  percent of control binding at 10 µM: 90%
[11]; [18]
  percent of control binding at 10 µM: 90%
[12]; [18]
  percent of control binding at 10 µM: 83%
[13]; [18]
  percent of control binding at 10 µM: 75%
[14]; [18]
  percent of control binding at 10 µM: 94%
[15]; [18]
  percent of control binding at 10 µM: 94%
[16]; [18]
  percent of control binding at 10 µM: 76%

## NC(=O)c1cccc2cn(-c3ccc([C@@H]4CCCNC4)cc3)nc12 [Niraparib]
[1]; [19]
  percent of control binding at 10 µM: 95%
[2]; [19]
  percent of control binding at 10 µM: 90%
[3]; [19]
  percent of control binding at 10 µM: 82%
[4]; [19]
  percent of control binding at 10 µM: 100%
[5]; [19]
  percent of control binding at 10 µM: 86%
[6]; [19]
  percent of control binding at 10 µM: 100%
[7]; [19]
  percent of control binding at 10 µM: 56%
[8]; [19]
  percent of control binding at 10 µM: 66%
[9]; [19]
  percent of control binding at 10 µM: 90%
[10]; [19]
  percent of control binding at 10 µM: 100%
[11]; [19]
  percent of control binding at 10 µM: 100%
[12]; [19]
  percent of control binding at 10 µM: 93%
[13]; [19]
  percent of control binding at 10 µM: 73%
[14]; [19]
  percent of control binding at 10 µM: 99%
[15]; [19]
  percent of control binding at 10 µM: 94%
[16]; [19]
  percent of control binding at 10 µM: 100%

## CNCc1ccc(-c2[nH]c3cc(F)cc4c3c2CCNC4=O)cc1 [Rucaparib]
[1]; [20]
  percent of control binding at 10 µM: 66%
[2]; [20]
  percent of control binding at 10 µM: 88%
[3]; [20]
  percent of control binding at 10 µM: 100%
[4]; [20]
  percent of control binding at 10 µM: 93%
[5]; [20]
  percent of control binding at 10 µM: 86%
[6]; [20]
  percent of control binding at 10 µM: 100%
[7]; [20]
  percent of control binding at 10 µM: 81%
[8]; [20]
  percent of control binding at 10 µM: 70%
[9]; [20]
  percent of control binding at 10 µM: 98%
[10]; [20]
  percent of control binding at 10 µM: 93%
[11]; [20]
  percent of control binding at 10 µM: 83%
[12]; [20]
  percent of control binding at 10 µM: 77%
[13]; [20]
  percent of control binding at 10 µM: 85%
[14]; [20]
  percent of control binding at 10 µM: 100%
[15]; [20]
  percent of control binding at 10 µM: 52%
[16]; [20]
  percent of control binding at 10 µM: 81%
